Results: patent US20190125753A1, “COMPOUNDS AND METHODS FOR INCREASING HEMATOPOIESIS” (University of Southern California, priority 2016, published 2019)

What was measured:
bone marrow HSPC [1] = assay: Multiple administration, competitive repopulation assay; assay type: in vivo, mouse
Protocol: The golden standard to determine HSPC number and activity is a competitive repopulation assay. The testing cells and competitor cells are mixed and transplanted to recipients to create an environment the testing cells compete with competitor cells to repopulate the recipients' hematopoietic system. The quantitative engraftment level reflects the testing cell stem/progenitor cell number.
In this study, donor mice (CD45.2) were treated with YH250 or DMSO every 48 hs for 4 round, then, bone marrow cells from the treated mice were recovered and mixed with competitive cells from non-treated normal mice for BMT to lethally irradiated recipients (FIG. 16A). Blood were collected periodically from recipient mice to determine HSPC activities.

Wnt/β-catenin pathway = assay: SuperTOPFLASH (STF1.1 Hek-293) Wnt/β-catenin-driven luciferase reporter; assay type: cell-based; settings: Homo sapiens, HEK293; STF1.1 Hek-293; 1 hour pre-incubation, 10 mM LiCl 24 hours
Protocol: A. Wnt/β-Catenin Activity: The Initial SuperTOPFLASH Screen.
Hek293 cells were stably transfected with plasmid that contains multiple TCF/LEF fragments in front of Luciferase gene. Wnt/β-catenin activity was determined from luciferase expression levels. […] Briefly, stably transfected Hek-293, STFI.1 (Wnt/β-catenin-driven luciferase) and Survivin-Hek-293 (1 Kb Human survivin promoter-driven luciferase) cells were maintained in DMEM, 10% FBS, Pen/Strep with 400 μg/mL G418 or 2 μg/mL puromycin, respectively. To check the activity of ICG-001, YH249, and YH250, the cells were split into white-opaque 96-well plates at 10,000 cells per well and allowed to attach overnight. For SuperTOPLASH, the inhibitors were added to the cells and pre-incubated for 1 hour prior to stimulation with 10 mM Li Cl for 24 hours. Luciferase activity was read using BrightGlo (Promnega) luciferase substrate. For survivin/luc, the inhibitors were added to the cells and incubated for 24 hours prior to readout. To calculate IC5o values, the resulting curve was fitted to a four-parameter logistic model (4PL) using GraphPad Prism 5 software.
An endogenous human survivin 1 kb promoter was inserted before a luciferase gene. […] R1 and R2 were diversified in this study. Percent inhibition of luciferase activity was calculated according to the following equations; % inhibition of STF 1.1 reporter activity=(I−RLU(10 mM LiCl) treated/RLU(10 omM LiCl) vehicle×control)100, % inhibition of Survivin reporter activity=(1−RLUtreated/RLU vehicle control)×100. Error bars indicate the mean±SE of 3 separate experiments. Selectivity (FIG. 2H) was calculated by IC50 value for Survivin-Hek-293/IC50 value for STF 1.1.

7Gy irradiated animals = assay: Peripheral blood count and body weight recovery after 7Gy radiation; assay type: in vivo
Protocol: YH250 was then tested for stimulating blood count recovery in irradiated animals. In this experiment, animals received 7Gy whole body radiation and then, either YH250 or DMSO was administrated 24 hours post radiation. Animal body weight and peripheral blood counts were measured to monitor hematopoietic recovery (FIGS. 20A-20B). […] It is worth noting that it is a full lineage blood cell count recovery, including white blood cell (lymphocyte, monocyte and neutrophil), red blood cell and platelet (FIG. 20C). The neutrophil and platelet recovery is most significant.

bone marrow HSPC [2] = assay: HSPC proliferation in 7Gy irradiated mice (BrdU, cell cycle, FACS); assay type: in vivo, mouse
Protocol: YH250 was also tested for stimulation of HSPC (hematopoietic stem/progenitor population) proliferation in irradiated animals. In this study, mice received 7Gy whole body radiation, DMSO or YH250 (s.c., 2 mg/Kg) were administrated 24 hours post radiation, followed with BrdU injection. FIG. 17A depicts the experimental procedure. […] Then, YH250 was administrated to 7Gy irradiated animals and 4 days later, bone marrow cells were isolated for FACS analysis for HSC markers (FIG. 17E).

bone marrow HSPC [3] = assay: Competitive repopulation assay after 8.5Gy radiation (HSPC exhaustion); assay type: in vivo
bone marrow cells = assay: Bone marrow CFC recovery after 7Gy radiation; assay type: in vivo, mouse
Protocol: According to particular aspects of the present invention, if YH250 can stimulate 7Gy irradiated animal HSPC proliferation/expansion, the compound may accelerate the recovery of the hematopoiesis from radiation damage. We first tested if YH250 treatment accelerates bone marrow cell CFC activities, the more differentiated cells. After 7Gy radiation and either DMSO or YH250 administration 24 hours post radiation, bone marrow cells were recovered at different time points (day 6, 11, 13, 15 post treatment) and CFC assays were performed (FIG. 19A). […] Consistent with increased colony numbers, there are more cells from plates of YH250 treated cells.

mouse bone marrow cells [4] = assay: CFU-S12 assay (treated cells injected to lethally irradiated mice); assay type: in vivo; settings: cells treated in vitro, 12 days after injection
Text: In CFU-S12 assay, cells treated with DMSO or YH250 were recovered from plate and injected to lethally irradiated mice (FIG. 8A), 12 days later, animals were euthanized to check spleen colony formation and spleen weight.

mouse bone marrow cells [5] = assay: 3-day in vitro culture of bone marrow cells, FACS; assay type: cell-based; settings: 0.5 μM, 3 days, 200,000 live cells analyzed
Protocol: Mouse bone marrow cells were isolated and cultured in QBSF-58 medium with DMSO or YH250 0.5 μM (medium contains 10 ng/ml of SCF, TPO, Flt3 ligand, and IL-6) for 3 days and cells are recovered and analyzed for HSC surface markers with FACS.

[6] = administered 24 hours post radiation

Structure (SMILES): COc1cccc(CNC(=O)N2C3CN(Cc4cc(Cl)cc(Cl)c4N(C)C)C(=O)[C@H](Cc4ccc(O)cc4)N3C(=O)CN2C)c1OC (stereo partly shown) [YH250]
- BrdU positive cells in HSPC compartment (bone marrow HSPC [1]; LSK34negt135neg, LSK34neg135neg48negt150posit, LSK34posit135negt cells): more BrdU positive cells
- engraftment level at day 140 and 164 vs day 40 after BMT (bone marrow HSPC [1]; donors treated every 48 hs for 4 round, p<0.01, n=5/group): significantly increased
- engraftment level vs DMSO treated cells (bone marrow HSPC [1]; no statistical significance (n=5)): higher than DMSO treated cells
- IC50 (Wnt/β-catenin pathway): < 100 nM
- blood cell count at nadir points vs DMSO (7Gy irradiated animals): significantly higher
- blood count recovery (full lineage) (7Gy irradiated animals; [6]): Accelerated blood count recovery
- body weight (7Gy irradiated animals; [6]): very little weight drop
- bone marrow cells in S phase (bone marrow HSPC [2]; 7Gy irradiation): more bone marrow cells in S phase
- HSPC (L−CD48−CD150+ cells) (bone marrow HSPC [2]; 7Gy, 4 days after administration): increased HSPC
- BrdU positive cells in lineage negative (Lin) population (bone marrow HSPC [2]; 7Gy, s.c., 2 mg/Kg 24 hours post radiation): more BrdUpost cells
- engraftment level vs DMSO treated animals (bone marrow HSPC [3]; bone marrow from 8.5Gy irradiated animals): similar
- HSPC exhaustion (bone marrow HSPC [3]; one dose 24 hours post lethal dose radiation): does not exhaust HSPC
- cells from CFC plates (bone marrow cells; 7Gy radiation): more cells
- colonies in CFC assay vs DMSO treated mice (bone marrow cells; 14th day post 7Gy radiation): significantly more colonies
- spleen colonies (CFU-S12) (mouse bone marrow cells [4]): larger colonies on spleen
- spleen weight (CFU-S12) (mouse bone marrow cells [4]): heavier spleen
- LSK 48 − 150+ % (mouse bone marrow cells [5]): 16%
- LSK 135 + 34+ % (mouse bone marrow cells [5]): 67%
- LSK 135 + 34+ Cell# (mouse bone marrow cells [5]): 4263
- LSK 135 − 34+ % (mouse bone marrow cells [5]): 25%
- LSK 135 − 34+ Cell# (mouse bone marrow cells [5]): 1602
- LSK 135 − 34− % (mouse bone marrow cells [5]): 7%
- LSK 135 − 34− Cell# (mouse bone marrow cells [5]): 445
- LSK % (mouse bone marrow cells [5]): 16%
- LSK Cell# (mouse bone marrow cells [5]): 6340
- Lin-neg % (mouse bone marrow cells [5]): 20%
- Lin-neg Cell# (mouse bone marrow cells [5]): 40015
- LSK 48 − 150+ Cell# (mouse bone marrow cells [5]; DMSO 607): 992
